# Measured values: patent US6780871B2, “Methods and compositions for treating addiction disorders” (Albany Medical College, priority 2001, dated 2004)
# Tests used:
# α3β4 nACh receptors [1] = target: T1, α3β4 nACh receptors (Rattus norvegicus, UniProt P04757+P12392); test: whole-cell patch-clamp of transfected HEK293 cells, ganglionic α3β4 nACh receptors, 1 mM ACh; assay type: cell-based
# T1 construct: expressed in transfected cells; host or cells: HEK293 (ATCC CRL1573), transient transfection
# T1 sequence (P04757 26-499): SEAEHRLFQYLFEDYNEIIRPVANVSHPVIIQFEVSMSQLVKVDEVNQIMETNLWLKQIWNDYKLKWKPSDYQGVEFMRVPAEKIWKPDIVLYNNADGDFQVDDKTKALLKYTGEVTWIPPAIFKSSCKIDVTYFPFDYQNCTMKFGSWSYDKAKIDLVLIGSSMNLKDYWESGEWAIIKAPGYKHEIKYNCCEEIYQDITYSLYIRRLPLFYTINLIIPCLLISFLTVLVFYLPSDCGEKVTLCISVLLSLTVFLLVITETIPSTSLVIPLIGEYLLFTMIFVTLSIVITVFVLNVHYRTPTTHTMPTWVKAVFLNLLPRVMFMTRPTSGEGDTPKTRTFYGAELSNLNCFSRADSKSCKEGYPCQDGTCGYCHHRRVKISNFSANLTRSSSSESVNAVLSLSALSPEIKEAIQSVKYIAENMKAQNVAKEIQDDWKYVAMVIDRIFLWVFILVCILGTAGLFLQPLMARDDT
# T1 sequence (P12392 21-495): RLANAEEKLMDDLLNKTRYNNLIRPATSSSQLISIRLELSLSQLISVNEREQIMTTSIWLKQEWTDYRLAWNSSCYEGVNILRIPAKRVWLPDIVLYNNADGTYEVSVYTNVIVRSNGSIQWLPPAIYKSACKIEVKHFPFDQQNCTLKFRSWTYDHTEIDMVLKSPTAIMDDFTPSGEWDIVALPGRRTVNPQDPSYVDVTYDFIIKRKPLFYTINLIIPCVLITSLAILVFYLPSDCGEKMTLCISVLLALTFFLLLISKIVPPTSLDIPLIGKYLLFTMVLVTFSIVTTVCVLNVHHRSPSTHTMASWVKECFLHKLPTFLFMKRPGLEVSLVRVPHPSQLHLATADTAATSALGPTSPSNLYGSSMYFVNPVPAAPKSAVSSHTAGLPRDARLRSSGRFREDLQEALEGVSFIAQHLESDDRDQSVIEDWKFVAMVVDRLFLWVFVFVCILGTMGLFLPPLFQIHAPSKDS
# Method: Human embryonic kidney 293 (HEK293) fibroblasts (ATCC CRL1573) were cultured in minimal essential medium supplemented with 10% fetal bovine serum and 2 mM glutamine (Life Technologies, Rockville, Md.). Cells were plated on poly-D-lysine-coated 35 mm nunc dishes, transfected by the LipofectaminePLUS method (Life Technologies), and examined functionally between 18-48 h post transfection. The following receptor subunit cDNAs were used: nAChR-α3 (nicotinic acetylcholine receptor-α3; accession no. L31621), nAChR-α4 (accession no. L31620), nAChR-β2 (accession no. L31622), nAChR-β4 (accession no. U42976), 5-HT3R-A (5-HT3A receptor; accession no. M74425), NR1 (N-methyl-D-aspartate receptor 1; accession no. X63255), NR2A (accession no. X91561), and NR2B (accession no. M91562). The nAchR and NR clones were rat; the 5-HT3R-A clone was mouse. Co-transfection of enhanced green fluorescent protein (“EGFP”) (10% of total cDNA) provided a marker to identify transfected cells. Transfected cells were selected for EGFP expression and examined by voltage-clamp recording in the whole-cell configuration using an Axopatch 200B patch-clamp amplifier (Axon Instruments, Foster City, Calif.). Thin-walled borosilicate glass microelectrodes (TW150F, World Precision Instruments, Sarasota, Fla.) had resistances of 3-5 MΩ when filled with an internal solution containing (in mM): 135 CsCl, 10 CsF, 10 HEPES (N-[2-hydroxyethyl]piperazine-N′-[2-ethanesulfonic acid]), 5 EGTA (ethylene glycol-bis[β-aminoethyl ether]-N,N,N′,N′-tetraacetic acid), 1 MgCl2, 0.5 CaCl2, pH 7.2. Whole-cell capacitance and series resistance were recorded and adequately compensated using the available circuitry of the amplifier. Current responses were filtered at 1 kHz with an 8-pole Bessel filter (Cygnus Technologies, Delaware Water Gap, Pa.), digitized at 3 kHz, and stored on a Macintosh PowerPC-G3 computer using an ITC-16 interface (Instrutech, Great Neck, N.Y.) under control of the data acquisition and analysis program Synapse (Synergy Research, Gaithersburg, Md.). […] Rapid switching between inputs was achieved using a set of upstream solenoid valves (Lee Co., Westbrook, Conn.) under computer control; the solution exchange rate was ˜5 ms as measured from liquid junction currents.
# Transfected HEK293 cells expressing various receptor subunit cDNAs were examined by whole-cell patch-clamp recording with fast perfusion of agonist and drug solutions. […] In FIG. 1A, open bars depict the timing of ACh application; filled bars depict the timing of co-application of 20 μM IBO or 20 μM 18MC; and inhibition was measured relative to control at the end of the drug application (indicated by arrows). […]
# α3β4 nACh receptors [2] = target: T2, α3β4 nACh receptors (Rattus norvegicus, UniProt P09483+P12390); test: whole-cell patch-clamp of transfected HEK293 cells, neuronal nACh receptors, 300 μM ACh; assay type: cell-based
# T2 construct: expressed in transfected cells; host or cells: HEK293 (ATCC CRL1573), transient transfection
# T2 sequence (P09483 31-630): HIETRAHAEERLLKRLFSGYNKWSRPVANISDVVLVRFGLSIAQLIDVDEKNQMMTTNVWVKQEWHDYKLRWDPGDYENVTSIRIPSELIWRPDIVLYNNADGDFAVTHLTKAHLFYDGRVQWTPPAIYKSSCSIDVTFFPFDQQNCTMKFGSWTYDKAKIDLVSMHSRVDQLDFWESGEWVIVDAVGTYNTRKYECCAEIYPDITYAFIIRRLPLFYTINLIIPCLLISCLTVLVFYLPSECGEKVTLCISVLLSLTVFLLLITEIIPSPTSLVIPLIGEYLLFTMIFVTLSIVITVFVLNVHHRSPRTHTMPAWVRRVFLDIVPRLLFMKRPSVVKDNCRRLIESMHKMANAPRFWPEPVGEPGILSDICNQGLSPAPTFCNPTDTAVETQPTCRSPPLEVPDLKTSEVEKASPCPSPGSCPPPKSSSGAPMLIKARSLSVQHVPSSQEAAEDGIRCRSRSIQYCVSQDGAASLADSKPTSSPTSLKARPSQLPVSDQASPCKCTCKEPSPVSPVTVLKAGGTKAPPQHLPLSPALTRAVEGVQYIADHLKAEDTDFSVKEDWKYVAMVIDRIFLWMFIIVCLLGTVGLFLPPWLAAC
# T2 sequence (P12390 25-500): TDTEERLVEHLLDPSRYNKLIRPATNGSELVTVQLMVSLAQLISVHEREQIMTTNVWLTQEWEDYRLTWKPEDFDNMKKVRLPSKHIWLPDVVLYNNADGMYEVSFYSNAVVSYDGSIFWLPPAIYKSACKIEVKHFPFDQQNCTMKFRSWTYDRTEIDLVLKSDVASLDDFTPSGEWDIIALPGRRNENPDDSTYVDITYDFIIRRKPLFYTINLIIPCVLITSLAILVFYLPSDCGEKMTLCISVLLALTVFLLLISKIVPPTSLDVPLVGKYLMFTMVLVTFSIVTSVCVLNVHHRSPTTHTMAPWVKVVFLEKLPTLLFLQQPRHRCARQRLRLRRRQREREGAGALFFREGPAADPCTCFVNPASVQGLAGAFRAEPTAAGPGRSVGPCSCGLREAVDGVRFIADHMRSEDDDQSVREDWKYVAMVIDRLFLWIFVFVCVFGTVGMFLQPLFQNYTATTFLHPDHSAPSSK
# Method: (§1) Human embryonic kidney 293 (HEK293) fibroblasts (ATCC CRL1573) were cultured in minimal essential medium supplemented with 10% fetal bovine serum and 2 mM glutamine (Life Technologies, Rockville, Md.). Cells were plated on poly-D-lysine-coated 35 mm nunc dishes, transfected by the LipofectaminePLUS method (Life Technologies), and examined functionally between 18-48 h post transfection. The following receptor subunit cDNAs were used: nAChR-α3 (nicotinic acetylcholine receptor-α3; accession no. L31621), nAChR-α4 (accession no. L31620), nAChR-β2 (accession no. L31622), nAChR-β4 (accession no. U42976), 5-HT3R-A (5-HT3A receptor; accession no. M74425), NR1 (N-methyl-D-aspartate receptor 1; accession no. X63255), NR2A (accession no. X91561), and NR2B (accession no. M91562). The nAchR and NR clones were rat; the 5-HT3R-A clone was mouse. Co-transfection of enhanced green fluorescent protein (“EGFP”) (10% of total cDNA) provided a marker to identify transfected cells. Transfected cells were selected for EGFP expression and examined by voltage-clamp recording in the whole-cell configuration using an Axopatch 200B patch-clamp amplifier (Axon Instruments, Foster City, Calif.). Thin-walled borosilicate glass microelectrodes (TW150F, World Precision Instruments, Sarasota, Fla.) had resistances of 3-5 MΩ when filled with an internal solution containing (in mM): 135 CsCl, 10 CsF, 10 HEPES (N-[2-hydroxyethyl]piperazine-N′-[2-ethanesulfonic acid]), 5 EGTA (ethylene glycol-bis[β-aminoethyl ether]-N,N,N′,N′-tetraacetic acid), 1 MgCl2, 0.5 CaCl2, pH 7.2. Whole-cell capacitance and series resistance were recorded and adequately compensated using the available circuitry of the amplifier. Current responses were filtered at 1 kHz with an 8-pole Bessel filter (Cygnus Technologies, Delaware Water Gap, Pa.), digitized at 3 kHz, and stored on a Macintosh PowerPC-G3 computer using an ITC-16 interface (Instrutech, Great Neck, N.Y.) under control of the data acquisition and analysis program Synapse (Synergy Research, Gaithersburg, Md.). Cells were continuously superfused with extracellular solution containing (in mM): 150 NaCl, 3 KCl, 5 HEPES, 1 MgCl2, 1.8 CaCl2, 10 glucose, and 0.1 mg/ml phenol red, pH 7.3 (MgCl2 was omitted from all solutions used for the study of NMDA receptors). […] Control, agonist, and drug solutions were applied to individual cells by rapid perfusion. Solutions were driven by a syringe pump through a flowpipe having 4 inputs that converge at a single common output of approximately 100 μm diameter. Rapid switching between inputs was achieved using a set of upstream solenoid valves (Lee Co., Westbrook, Conn.) under computer control; the solution exchange rate was ˜5 ms as measured from liquid junction currents.
# Transfected HEK293 cells expressing various receptor subunit cDNAs were examined by whole-cell patch-clamp recording with fast perfusion of agonist and drug solutions. […] Transfected HEK293 cells expressing α3β4 nACh receptors were voltage-clamped to −70 mV and stimulated with 1 mM ACh at 30 s intervals. […] In FIG. 1A, open bars depict the timing of ACh application; filled bars depict the timing of co-application of 20 μM IBO or 20 μM 18MC; and inhibition was measured relative to control at the end of the drug application (indicated by arrows). […] The data presented in FIG. 1B are mean±SEM for 3-14 cells per point, and curve fits are given for the logistic equation: I=Imax/(1+([drug]/IC50)). […] In this case, transfected HEK293 cells expressing α3β4 nACh receptors were voltage-clamped to −70 mV and stimulated with 300 μM ACh at 30 s intervals.
# NR1/2A receptors = target: T3, NR1/2A receptors (Rattus norvegicus, UniProt P35439+Q00959); test: whole-cell patch-clamp of transfected HEK293 cells, NR1/2A, 100 μM glutamate plus 10 μM glycine; assay type: cell-based
# T3 construct: expressed in transfected cells; host or cells: HEK293 (ATCC CRL1573), transient transfection
# T3 sequence (Q00959 20-1464 limits assumed, other chains not shown): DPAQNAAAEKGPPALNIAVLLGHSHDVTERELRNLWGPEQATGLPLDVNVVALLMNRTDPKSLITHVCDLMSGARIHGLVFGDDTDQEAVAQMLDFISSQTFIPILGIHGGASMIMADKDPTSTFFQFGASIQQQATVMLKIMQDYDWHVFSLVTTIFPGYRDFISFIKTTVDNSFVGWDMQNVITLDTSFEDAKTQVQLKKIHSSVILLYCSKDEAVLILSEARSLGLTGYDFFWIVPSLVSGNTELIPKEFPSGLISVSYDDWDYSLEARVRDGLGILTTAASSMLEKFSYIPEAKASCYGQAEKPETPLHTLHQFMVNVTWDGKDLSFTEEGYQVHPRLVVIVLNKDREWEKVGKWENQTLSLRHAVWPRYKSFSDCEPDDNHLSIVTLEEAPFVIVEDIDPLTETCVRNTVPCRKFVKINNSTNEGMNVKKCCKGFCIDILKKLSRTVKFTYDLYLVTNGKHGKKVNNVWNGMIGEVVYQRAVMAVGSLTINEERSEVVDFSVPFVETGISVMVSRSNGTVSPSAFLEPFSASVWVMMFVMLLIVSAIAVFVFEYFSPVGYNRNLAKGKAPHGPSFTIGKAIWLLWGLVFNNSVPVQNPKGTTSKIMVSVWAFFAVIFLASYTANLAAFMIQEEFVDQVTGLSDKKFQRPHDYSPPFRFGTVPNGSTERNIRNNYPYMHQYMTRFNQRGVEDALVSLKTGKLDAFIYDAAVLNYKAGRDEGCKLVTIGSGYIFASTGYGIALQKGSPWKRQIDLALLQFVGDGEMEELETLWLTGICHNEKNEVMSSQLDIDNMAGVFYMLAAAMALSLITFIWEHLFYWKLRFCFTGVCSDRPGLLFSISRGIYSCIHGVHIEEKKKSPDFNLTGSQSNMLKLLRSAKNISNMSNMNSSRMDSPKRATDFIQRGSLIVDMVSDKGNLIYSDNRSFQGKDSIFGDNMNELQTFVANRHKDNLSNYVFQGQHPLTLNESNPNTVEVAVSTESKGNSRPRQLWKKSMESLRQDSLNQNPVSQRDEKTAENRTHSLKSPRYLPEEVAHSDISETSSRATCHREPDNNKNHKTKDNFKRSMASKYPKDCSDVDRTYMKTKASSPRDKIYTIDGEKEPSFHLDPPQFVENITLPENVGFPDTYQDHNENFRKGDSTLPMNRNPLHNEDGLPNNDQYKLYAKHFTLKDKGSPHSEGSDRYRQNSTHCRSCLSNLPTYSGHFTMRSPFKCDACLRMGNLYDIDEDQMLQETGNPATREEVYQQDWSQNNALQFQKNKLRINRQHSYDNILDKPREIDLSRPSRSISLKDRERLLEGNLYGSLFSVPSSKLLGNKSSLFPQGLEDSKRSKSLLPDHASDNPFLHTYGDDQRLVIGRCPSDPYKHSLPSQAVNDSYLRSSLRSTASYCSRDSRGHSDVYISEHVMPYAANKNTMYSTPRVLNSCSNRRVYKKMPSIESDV
# Method: as §1
# (§2) To study these, transfected HEK293 cells expressing NR1/2A or NR1/2B receptors were voltage-clamped to −70 mV and stimulated with 100 μM glutamate plus 10 μM glycine at 30 s intervals. […] In FIGS. 3A and 3B, open bars depict the timing of agonist application, filled bars depict the timing of co-application of 20 μM IBO or 20 μM 18MC, and inhibition was measured relative to control at the end of the drug application (indicated by arrows).
# NR1/2B receptors = target: T4, NR1/2B receptors (Rattus norvegicus, UniProt P35439+Q00960); test: whole-cell patch-clamp of transfected HEK293 cells, NR1/2B, 100 μM glutamate plus 10 μM glycine; assay type: cell-based
# T4 construct: expressed in transfected cells; host or cells: HEK293 (ATCC CRL1573), transient transfection
# T4 sequence (Q00960 27-1482, other chains not shown): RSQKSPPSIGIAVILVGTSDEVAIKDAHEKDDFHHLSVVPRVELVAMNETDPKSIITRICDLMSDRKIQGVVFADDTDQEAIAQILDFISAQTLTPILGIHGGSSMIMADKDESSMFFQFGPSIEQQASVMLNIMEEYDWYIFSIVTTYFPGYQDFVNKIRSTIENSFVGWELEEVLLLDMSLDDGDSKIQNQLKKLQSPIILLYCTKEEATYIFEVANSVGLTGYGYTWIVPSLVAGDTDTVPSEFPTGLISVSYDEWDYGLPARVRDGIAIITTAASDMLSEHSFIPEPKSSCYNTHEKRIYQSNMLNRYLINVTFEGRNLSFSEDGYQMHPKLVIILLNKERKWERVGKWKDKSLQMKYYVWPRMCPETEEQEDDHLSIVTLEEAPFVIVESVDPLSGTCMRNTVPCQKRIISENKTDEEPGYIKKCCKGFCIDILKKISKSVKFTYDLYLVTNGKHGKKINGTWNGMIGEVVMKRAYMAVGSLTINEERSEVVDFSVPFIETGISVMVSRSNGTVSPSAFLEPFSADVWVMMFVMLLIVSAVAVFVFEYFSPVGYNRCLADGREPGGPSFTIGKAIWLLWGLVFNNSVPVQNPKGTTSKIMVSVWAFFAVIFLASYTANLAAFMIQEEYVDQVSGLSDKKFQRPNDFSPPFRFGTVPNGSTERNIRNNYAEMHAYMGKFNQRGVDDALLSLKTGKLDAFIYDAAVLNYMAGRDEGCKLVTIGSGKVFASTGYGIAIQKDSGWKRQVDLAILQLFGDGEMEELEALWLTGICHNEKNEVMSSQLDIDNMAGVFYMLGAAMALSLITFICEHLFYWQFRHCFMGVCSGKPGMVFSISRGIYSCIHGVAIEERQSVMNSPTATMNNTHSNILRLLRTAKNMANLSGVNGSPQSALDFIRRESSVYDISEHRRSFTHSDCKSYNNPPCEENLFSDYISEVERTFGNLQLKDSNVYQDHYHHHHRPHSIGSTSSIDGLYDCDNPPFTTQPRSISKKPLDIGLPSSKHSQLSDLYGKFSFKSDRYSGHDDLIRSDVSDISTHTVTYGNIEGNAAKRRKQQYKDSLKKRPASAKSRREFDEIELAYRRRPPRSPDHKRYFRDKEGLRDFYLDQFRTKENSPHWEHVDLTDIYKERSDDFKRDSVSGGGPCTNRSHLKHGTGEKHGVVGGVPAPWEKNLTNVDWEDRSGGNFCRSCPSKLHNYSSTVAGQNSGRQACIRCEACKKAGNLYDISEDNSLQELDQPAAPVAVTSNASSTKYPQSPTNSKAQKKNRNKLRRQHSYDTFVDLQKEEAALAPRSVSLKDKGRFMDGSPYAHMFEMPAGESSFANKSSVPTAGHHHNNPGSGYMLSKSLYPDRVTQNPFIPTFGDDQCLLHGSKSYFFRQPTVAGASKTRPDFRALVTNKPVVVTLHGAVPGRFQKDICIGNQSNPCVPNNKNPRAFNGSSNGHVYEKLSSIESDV
# Method: as §1, §2
# 5-HT3A receptors = target: T5, 5-HT3A receptors (Mus musculus, UniProt P23979); test: whole-cell patch-clamp of transfected HEK293 cells, 5-HT3A, 100 μM serotonin; assay type: cell-based
# T5 construct: expressed in transfected cells; host or cells: HEK293 (ATCC CRL1573), transient transfection
# T5 sequence (P23979 24-489): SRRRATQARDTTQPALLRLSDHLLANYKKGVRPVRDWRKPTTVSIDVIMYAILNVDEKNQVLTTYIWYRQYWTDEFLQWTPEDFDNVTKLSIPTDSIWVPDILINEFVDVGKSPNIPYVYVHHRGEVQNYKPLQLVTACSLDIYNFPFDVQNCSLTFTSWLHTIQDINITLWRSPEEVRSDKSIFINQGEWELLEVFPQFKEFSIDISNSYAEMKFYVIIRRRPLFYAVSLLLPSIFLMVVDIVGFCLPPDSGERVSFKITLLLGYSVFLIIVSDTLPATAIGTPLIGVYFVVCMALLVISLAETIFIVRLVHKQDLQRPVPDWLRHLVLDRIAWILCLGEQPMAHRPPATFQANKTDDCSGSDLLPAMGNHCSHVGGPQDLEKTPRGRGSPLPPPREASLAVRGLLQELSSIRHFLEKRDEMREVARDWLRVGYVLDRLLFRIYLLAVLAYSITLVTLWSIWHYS
# Method: as §1
# as §2, with “Transfected” for “To study these, transfected”, “5-HT3A” for “NR1/2A or NR1/2B”, “serotonin” for “glutamate plus 10 μM glycine”, “This is shown in FIG. 4, where” for “In FIGS. 3A and 3B,”
# [3] = target: NMDA-type glutamate receptors; settings: literature (Popik, Chen); read-out: IC50 obtained in hippocampal neurons; cited from earlier work
substance,measurement,setting,value
ibogaine,response to drug applied alone (agonist activity),"α3β4 nACh receptors [1]; 20 μM drug alone, -70 mV",did not produce any response
same,inhibition of ACh-evoked responses on co-application,"α3β4 nACh receptors [1]; 20 μM drug with 1 mM ACh, N=15, FIG. 1A",nearly abolished
same,inhibition of ACh-evoked response,α3β4 nACh receptors [2]; 5 μM drug with 300 μM ACh,61±4%
same,response to drug applied alone (agonist activity),"α3β4 nACh receptors [2]; 20 μM drug alone, -70 mV",did not produce any response
same,inhibition of ACh-evoked response,"α3β4 nACh receptors [2]; 20 μM drug with 300 μM ACh, FIG. 2",93±3%
same,inhibition of agonist-evoked response,"NR1/2A receptors; 10 μM drug, co-application",51±9%
same,response to drug applied alone (agonist activity),NR1/2A receptors; 20 μM drug alone,did not produce any response
same,reduction of agonist-evoked response,"NR1/2A receptors; 20 μM drug, co-application",98±3%
same,inhibition of agonist-evoked response,"NR1/2B receptors; 10 μM drug, co-application",82±3%
same,response to drug applied alone (agonist activity),NR1/2B receptors; 20 μM drug alone,did not produce any response
same,reduction of agonist-evoked response,"NR1/2B receptors; 20 μM drug, co-application",95±2%
same,response to drug applied alone (agonist activity),5-HT3A receptors; 20 μM drug alone,did not produce any response
same,inhibition of serotonin-evoked responses,"5-HT3A receptors; 20 μM drug with 100 μM serotonin, FIG. 4",53±3%
same,IC50,[3],3 to 5 µM
